What was measured:
PTZ seizure threshold = assay: Pentylenetetrazole (PTZ, i.v.)-induced seizure threshold; format: in vivo, rats
Procedure: Male […] Sprague-Dawley rats (Indianapolis, Ind.) were randomly assigned to treatment groups and dosed with vehicle (vehicle=1% carboxymethyl cellulose) with diazepam (0.1, 0.3, or 1 mg/kg) or test compound (3, 10, 30, or 60 mg/kg) 30 minutes prior to testing. Rats were placed in a restrainer and a winged infusion needle was inserted into the lateral tail vein. Intravenous infusion with 10 mg/ml PTZ at a rate of 0.5 ml/min was initiated until a clonic convulsion occurred, and the time to clonic convulsion was recorded in sec or a maximum of 4 min was recorded. Following infusion, rats are euthanized. The dose of PTZ required to elicit a clonic convulsion was calculated using the infusion rate, concentration of PTZ, time to clonic convulsion, and animal weight.

[1] = system: seizures in amygdala kindled rats; assay: Basolateral amygdala kindling; format: in vivo
Procedure: Seizure kindling models evaluate effects of drugs on the sensitization of the nervous system to seizure induction. In this test, drugs were evaluated for their ability to impact seizure parameters in rats that were fully kindled by daily electrical stimulation of their amygdala. Valproic acid was used as a positive control. Experiments were conducted using the general procedures of Zwart et al. (J. Pharmacol. Exp. Ther., 2014, 351:124-133). A bipolar electrode for electrical stimulation and EEG recording was stereotaxically implanted into one hemisphere of the basolateral amygdala (AP −2.2, ML −4.8, DV −8.5 mm, relative to bregma) of male Wistar rats. After post-operative recovery, electrical kindling begins, where a subthreshold constant current (400 μA, 1 ms, monophasic square-wave pulses, 60 Hz for 1 sec) is given once a day Monday-Friday for about 4-6 weeks until a rat is fully kindled. A fully kindled rat has experienced 10 consecutive stage 5 seizures or 10 of its last 12 were stage 5 according to the Racine Scale.
Twelve fully kindled rats were assigned to this study, and eight rats were selected and randomized to initial compound treatment groups from baseline after discharge threshold (ADT), seizure severity score, and after discharge duration (ADD). […] On test day, rats were dosed 30 min prior to beginning stimulation. After the pre-treatment, rats were stimulated using an ascending staircase sequence beginning at 10 μA and increasing in log unit steps of 10, 16, 25, 40, 65, 100, 160, 250, and 400 μA. Animals were stimulated until they were assigned a Seizure Severity Score for a visually observably seizure or they reached the 400 μA threshold limit. ADD was determined following testing. ADT was the current that induced a seizure; measurements were scale-adjusted to capture the stimulation scale change required to observe a seizure from the previous baseline to the ADT scored on test day. […] The average scale adjusted ADT was approximately 0.63 μA in vehicle treated rats.
Racine score of behavioral response to stimulation: 0=no behavioral response; 1=immobility, staring and/or facial clonus; 2=head nodding, jaw clonus, and/or tongue protrusion; 3=unilateral forelimb clonus; 4=bilateral forelimb clonus and/or rearing; 5=bilateral forelimb clonus with rearing and loss of balance.
After-Discharge Duration (ADD) is the duration of the first after-discharge.
ADT, ADD, and severity scores were analyzed by ANOVA. Seizure severity data was also analyzed by the nonparametric Skillings-Mack test, a generalization of the Friedman test for one-way repeated measures designs. Posthoc tests when reported were either by Dunnett's method (seizure severity) or using Wilcoxon sign rank tests (ADT and ADD). Valproic acid, used as a positive control was not used in ANOVA calculations.

[2] = system: electroshock-induced seizures; assay: Mouse electroshock-induced seizure model; format: in vivo; details: mice
Procedure: This assay detects effects of compounds that produce generalized seizures and those that dampen seizure spread. Male, CD1 mice (Taconic Farms) were studied at weights of 21-32 g. Mice=10/dose) were used with Wahlquist Model H stimulator with 0.2 sec stimulation with corneal electrodes. […] Mice were euthanized immediately following the test. Tonic extension was used as the primary endpoint.
(§1) For the in vivo assays, minimal effective doses (MED) were calculated in mg/kg. MED was defined as the lowest dose administered that produced statistically significant protection compared to vehicle control in the anticonvulsant assays. The MED, or minimal toxic dose (MTD) for motor impairment, was the minimal dose required to produce statistically-significant impairment in motor performance. Doses tested are shown in the figures and tables and are generally dosed in ½ log increments. The protective index (PT) was calculated at the MTD/MED.

[3] = system: motor performance on inverted screen
Procedure: Without prior pretraining, mice were placed on an 11 cm×14 cm square of round hole, perforated stainless steel mesh (18 holes/square inch, 3/16 inch diameter, ¼ inch staggered centers, 50% open area) mounted on a metal rod, 35 cm above the table top. The screen was slowly inverted such that the mouse was on the underside of the screen. Mice were then scored for 60 sec as follows: 0=climbed to top of screen, 1=hung onto bottom of screen, 2=fell off. Data were analyzed by ANOVA followed by post-hoc Dunnett's test.
The test compounds were suspended in 1% hydroxyethylcellulose/0.05% Tween 80/0.05% Dow antifoam. […] Compounds were administered in a volume of 10 ml/kg and were given 30 min prior to testing via the i.p. route of administration; diazepam was dosed orally, 30 min prior to testing.

PTZ-induced clonus = assay: Pentylenetetrazole (PTZ, 35 mg/kg s.c.)-induced clonic convulsions; format: in vivo; details: for PTZ Clonus to Criteria 1: MED producing maximal protection (0% seizures); for PTZ Clonus Potency (MED): lowest dose with statistically significant protection; for PTZ Clonus Potency (MED) / protection against PTZ-induced clonus: PTZ 35 mg/kg s.c.
Procedure: After the inverted screen test, the rats were dosed with pentylenetetrazole (PTZ)(35 mg/kg, s.c.) in a volume of 1 ml/kg and placed in an observation cage (40.6×20.3×15.2 cm) with a floor containing […] of wood chip bedding material. PTZ dose was determined to be ˜EC97 for producing clonic convulsions.

[4] = system: immobility in forced-swim test; assay: Forced-swim assay; format: in vivo, mice
Procedure: Male NIH Swiss mice (Envigo, Indianapolis, Ind.) were studied. Mice were placed in clear plastic cylinders (diameter: 10 cm; height: 25 cm) filled with 6 cm of water (22-25° C.) for six min. […] The duration of immobility during the last four min of the six min test period was scored. A mouse was recorded as immobile when floating motionless or making only those movements necessary to keep its head above water.

[5] = system: motor performance on an inverted screen; assay: Rat inverted screen test (motor impairment); details: up to 30 mg/kg, rats, inverted screen
From the text: The motor effects of Diazepam and KRM-II-81 were studied on the inverted screen. The inverted screen test is used to measure whether or not a test compound induces muscle relaxation. When a test subject is placed on a wire screen which is then inverted, the reaction is to climb to the opposite side so they are no longer hanging upside down.
Male, Sprague Dawley rats (Harlan Sprague Dawley, Indianapolis, Ind.) were used and weighed 90-110 g when evaluated in experiments. […] Rats were placed onto the top of a wire screen, which was then inverted so that the rats were hanging upside down.
Male Sprague-Dawley rats (n=5) were dosed i.p. (vehicle=1% carboxymethyl cellulose) with diazepam (3, 10, or 30 mg/kg), KRM-II-81 (10, 30, or 60 mg/kg) or HZ-166 (30 mg/kg) 30 minutes prior to testing. Rats were placed onto the top of a wire screen, which was then inverted so that the rats were hanging upside down. […] Results were analyzed using ANOVA (Dunnett's test: *P<0.05).
as §1

[6] = system: human (α2), or rat (α1, α3, α5, γ2L, β3) GABAA receptor subunits; assay: Whole-cell patch-clamp GABA current responses in transfected HEK-293T cells; format: cell-based; details: GABA EC3-5, drug concentration 100 nM
Procedure: Human […] (HEK-293T) were transiently transfected with full-length cDNAs encoding human (α2), or rat (α1, α3, α5, γ2L, β3) GABAA receptor subunits using calcium phosphate precipitation. Positively transfected cells were isolated by utilizing co-transfection of a plasmid encoding a surface antibody (pHook™-1, Invitrogen). 20-52 hours following transfection, cells were mixed with magnetic beads coated with antigen specific for the pHook antibody, isolated with a magnetic stand, and then plated onto coverslips and used for patch-clamp recordings 18-28 hours later.
Current responses to GABA were recorded in the whole-cell configuration, with cells voltage-clamped at −50 mV. The bath solution contained (in mM): 142 NaCl, 8.1 KCl, 6 MgCl2, 1 CaCl2), and 10 HEPES (4-(2-hydroxyethyl)-1-piperazineethanesulfonic acid) with pH=7.4 and osmolarity adjusted to 295-305 mOsm. The electrode (internal) solution consisted of (in mM); 153 KCl, 1 MgCl2, 5 K-EGTA (ethylene glycol-bis (β-aminoethyl ether N,N,N′N′-tetraacetate)), and 10 HEPES with pH=7.4 and osmolarity adjusted to 295-305 mOsm. […] Currents were recorded with an Axon 200B (Foster City, Calif.) patch clamp amplifier. […] Data were analyzed by two-way ANOVA followed by post-hoc Tukey's multiple comparison test. […]

SMILES: CN1C(=O)CN=C(c2ccccc2)c2cc(Cl)ccc21 [Diazepam, diazepam, reference compound]
- PTZ Threshold to Criteria (PTZ seizure threshold; MED for producing ≥2× PTZ seizure threshold at baseline): >1 mg/kg
- potency relative to KRM-II-81 and KRM-II-82 (PTZ seizure threshold; PTZ seizure threshold, rats): about 10 times
- PTZ Threshold Poteny (MED) (PTZ seizure threshold; lowest dose with statistically significant effect, rats, PTZ i.v.): 1 mg/kg
- effect on dose of PTZ required to induce convulsions (PTZ seizure threshold; rats, PTZ i.v. infusion, pretreatment 30 min): increased the dose of PTZ required to induce convulsions
- After-Discharge Duration to Criteria ([1]; MED for producing after-discharge duration ≤30 sec): >10 mg/kg
- After-Discharge Threshold to Criteria ([1]; MED for producing after-discharge threshold ≥3): >10 mg/kg
- Seizure Severity to Criteria ([1]; MED for producing seizure severity score ≤2): 10 mg/kg
- After-Discharge Duration Potency (MED) ([1]; amygdala kindled rats): >10 mg/kg
- After-Discharge Threshold Potency (MED) ([1]; amygdala kindled rats): 10 mg/kg
- Seizure Severity Poteny (MED) ([1]; amygdala kindled rats): 10 mg/kg
- effect on adjusted after-discharge threshold (ADT) ([1]; amygdala kindled rats): significantly increased
- effect on after-discharge duration (ADD) ([1]; amygdala kindled rats): trend for a significant effect
- effect on seizure severity score / kindling measures ([1]; amygdala kindled rats): decreased significantly
- Seizure free scores (seizure severity=0) ([1]; amygdala kindled rats, groups of 8): 2/8
- potency relative to KRM-II-81 to induce full seizure protection ([2]; electroshock): 5 ×
- Electroshock (minimal effective dose, MED) ([2]; lowest dose with statistically significant protection vs vehicle): 3 mg/kg
- protection against electroshock-induced seizures [2]: fully prevented
- motor impairment on inverted screen ([3]; diazepam 22 mg/kg p.o., mice): still significant but not maximal
- motor impairment score on inverted screen test ([3]; diazepam 30 mg/kg p.o., prior data, out of 2.0): 1.8
- PTZ Clonus to Criteria 1 (PTZ-induced clonus; rats): 10 mg/kg
- potency relative to KRM-II-81 to induce full seizure protection (PTZ-induced clonus; PTZ-induced clonus, rats): 10 ×
- convulsions (rats convulsing/tested) after PTZ (PTZ-induced clonus; diazepam 30 mg/kg p.o. + PTZ): 0/5
- PTZ Clonus Potency (MED) (PTZ-induced clonus; rats): 10 mg/kg
- protection against PTZ-induced clonus (PTZ-induced clonus; rats): fully prevented
- antidepressant-like effect in forced-swim assay ([4]; diazepam 22 mg/kg p.o. alone, mice): did not produce an antidepressant-like effect

SMILES: C#Cc1ccc2c(c1)C(c1ccccn1)=NCc1c(-c3nc(CC)no3)ncn1-2 [MP-III-080, 3-ethyl-5-(8-ethynyl-6-(pyridin-2-yl)-4H-benzo[f]imidazo[1,5-a][1,4]diazepin-3-yl)-1,2,4-oxadiazole]
- effect on motor performance [5]: without significant effect on motor performance
- Electroshock to Criteria ([2]; MED producing maximal protection (0% seizures)): 5.6 mg/kg
- PTZ Clonus to Criteria 1 (PTZ-induced clonus; rats): 10 mg/kg
- PTZ Clonus Potency (MED) (PTZ-induced clonus; rats): 10 mg/kg
- protection against PTZ-induced clonus (PTZ-induced clonus; rats): dose-dependently suppressed
- selectivity for α2 and α3 over α1 [6]: selective for α2 and α 3 over α1
- immobility in forced-swim assay ([4]; male NIH Swiss mice, i.p., 30 min prior): significantly decreased immobility time

From US20200316087A1, “NOVEL COMBINATION THERAPY FOR ANXIETY DISORDERS, EPILEPSY, AND PAIN” (priority 2017, published 2020)
